Numbers after ± are expanded uncertainties.
Experiment: wn = mass fraction of the nth substance listed
Details: 101.3 kPa, Liquid; for viscosity: Falling or rolling sphere viscometry; for mass density: Vibrating tube method

## COCCO [2-methoxyethan-1-ol] + NCCO
293.15 K, w2 = 0
  viscosity: 1.692 ± 0.071 mPa·s
  mass density: 964.7 ± 2 kg/m3
293.15 K, w2 = 0.1
  viscosity: 2.321 ± 0.097 mPa·s
  mass density: 971.8 ± 2 kg/m3
293.15 K, w2 = 0.3
  viscosity: 4.371 ± 0.18 mPa·s
  mass density: 984.5 ± 2 kg/m3
293.15 K, w2 = 0.5
  viscosity: 7.952 ± 0.33 mPa·s
  mass density: 995.6 ± 2 kg/m3
293.15 K, w2 = 0.7
  viscosity: 13 ± 0.54 mPa·s
  mass density: 1005.1 ± 2 kg/m3
293.15 K, w2 = 0.898
  viscosity: 20.5 ± 0.87 mPa·s
  mass density: 1013.4 ± 2 kg/m3
298.15 K, w2 = 0
  viscosity: 1.527 ± 0.064 mPa·s
  mass density: 960.1 ± 2 kg/m3
298.15 K, w2 = 0.1
  viscosity: 2.065 ± 0.086 mPa·s
  mass density: 967.3 ± 2 kg/m3
298.15 K, w2 = 0.3
  viscosity: 3.765 ± 0.16 mPa·s
  mass density: 980.2 ± 2 kg/m3
298.15 K, w2 = 0.5
  viscosity: 6.634 ± 0.27 mPa·s
  mass density: 991.4 ± 2 kg/m3
298.15 K, w2 = 0.7
  viscosity: 10.51 ± 0.44 mPa·s
  mass density: 1001 ± 2 kg/m3
298.15 K, w2 = 0.898
  viscosity: 16.17 ± 0.69 mPa·s
  mass density: 1009.4 ± 2 kg/m3
303.15 K, w2 = 0
  viscosity: 1.386 ± 0.058 mPa·s
  mass density: 955.5 ± 2 kg/m3
303.15 K, w2 = 0.1
  viscosity: 1.849 ± 0.077 mPa·s
  mass density: 962.8 ± 2 kg/m3
303.15 K, w2 = 0.3
  viscosity: 3.269 ± 0.13 mPa·s
  mass density: 975.8 ± 2 kg/m3
303.15 K, w2 = 0.5
  viscosity: 5.598 ± 0.23 mPa·s
  mass density: 987.1 ± 2 kg/m3
303.15 K, w2 = 0.7
  viscosity: 8.619 ± 0.36 mPa·s
  mass density: 996.9 ± 2 kg/m3
303.15 K, w2 = 0.898
  viscosity: 12.97 ± 0.55 mPa·s
  mass density: 1005.4 ± 2 kg/m3
308.15 K, w2 = 0
  viscosity: 1.262 ± 0.053 mPa·s
  mass density: 950.9 ± 2 kg/m3
308.15 K, w2 = 0.1
  viscosity: 1.664 ± 0.069 mPa·s
  mass density: 958.3 ± 2 kg/m3
308.15 K, w2 = 0.3
  viscosity: 2.861 ± 0.12 mPa·s
  mass density: 971.5 ± 2 kg/m3
308.15 K, w2 = 0.5
  viscosity: 4.773 ± 0.2 mPa·s
  mass density: 982.9 ± 2 kg/m3
308.15 K, w2 = 0.7
  viscosity: 7.158 ± 0.3 mPa·s
  mass density: 992.8 ± 2 kg/m3
308.15 K, w2 = 0.898
  viscosity: 10.55 ± 0.44 mPa·s
  mass density: 1001.4 ± 2 kg/m3
313.15 K, w2 = 0
  viscosity: 1.155 ± 0.048 mPa·s
  mass density: 946.2 ± 2 kg/m3
313.15 K, w2 = 0.1
  viscosity: 1.504 ± 0.062 mPa·s
  mass density: 953.7 ± 2 kg/m3
313.15 K, w2 = 0.3
  viscosity: 2.521 ± 0.1 mPa·s
  mass density: 967.1 ± 2 kg/m3
313.15 K, w2 = 0.5
  viscosity: 4.105 ± 0.17 mPa·s
  mass density: 978.6 ± 2 kg/m3
313.15 K, w2 = 0.7
  viscosity: 6.011 ± 0.25 mPa·s
  mass density: 988.6 ± 2 kg/m3
313.15 K, w2 = 0.898
  viscosity: 8.699 ± 0.37 mPa·s
  mass density: 997.3 ± 2 kg/m3
318.15 K, w2 = 0
  viscosity: 1.061 ± 0.044 mPa·s
  mass density: 941.5 ± 2 kg/m3
318.15 K, w2 = 0.1
  viscosity: 1.367 ± 0.056 mPa·s
  mass density: 949.1 ± 2 kg/m3
318.15 K, w2 = 0.3
  viscosity: 2.235 ± 0.092 mPa·s
  mass density: 962.7 ± 2 kg/m3
318.15 K, w2 = 0.5
  viscosity: 3.561 ± 0.15 mPa·s
  mass density: 974.3 ± 2 kg/m3
318.15 K, w2 = 0.7
  viscosity: 5.098 ± 0.21 mPa·s
  mass density: 984.4 ± 2 kg/m3
318.15 K, w2 = 0.898
  viscosity: 7.265 ± 0.31 mPa·s
  mass density: 993.3 ± 2 kg/m3
323.15 K, w2 = 0
  viscosity: 0.9781 ± 0.041 mPa·s
  mass density: 936.7 ± 2 kg/m3
323.15 K, w2 = 0.1
  viscosity: 1.246 ± 0.051 mPa·s
  mass density: 944.5 ± 2 kg/m3
323.15 K, w2 = 0.3
  viscosity: 1.992 ± 0.082 mPa·s
  mass density: 958.2 ± 2 kg/m3
323.15 K, w2 = 0.5
  viscosity: 3.112 ± 0.13 mPa·s
  mass density: 970 ± 2 kg/m3
323.15 K, w2 = 0.7
  viscosity: 4.367 ± 0.18 mPa·s
  mass density: 980.3 ± 2 kg/m3
323.15 K, w2 = 0.898
  viscosity: 6.134 ± 0.26 mPa·s
  mass density: 989.2 ± 2 kg/m3
328.15 K, w2 = 0
  viscosity: 0.905 ± 0.037 mPa·s
  mass density: 932 ± 2 kg/m3
328.15 K, w2 = 0.1
  viscosity: 1.141 ± 0.047 mPa·s
  mass density: 939.9 ± 2 kg/m3
328.15 K, w2 = 0.3
  viscosity: 1.786 ± 0.073 mPa·s
  mass density: 953.8 ± 2 kg/m3
328.15 K, w2 = 0.5
  viscosity: 2.741 ± 0.11 mPa·s
  mass density: 965.7 ± 2 kg/m3
328.15 K, w2 = 0.7
  viscosity: 3.775 ± 0.16 mPa·s
  mass density: 976 ± 2 kg/m3
328.15 K, w2 = 0.898
  viscosity: 5.229 ± 0.22 mPa·s
  mass density: 985.1 ± 2 kg/m3
333.15 K, w2 = 0
  viscosity: 0.8397 ± 0.035 mPa·s
  mass density: 927.2 ± 2 kg/m3
333.15 K, w2 = 0.1
  viscosity: 1.049 ± 0.043 mPa·s
  mass density: 935.2 ± 2 kg/m3
333.15 K, w2 = 0.3
  viscosity: 1.609 ± 0.066 mPa·s
  mass density: 949.2 ± 2 kg/m3
333.15 K, w2 = 0.5
  viscosity: 2.427 ± 0.1 mPa·s
  mass density: 961.3 ± 2 kg/m3
333.15 K, w2 = 0.7
  viscosity: 3.288 ± 0.14 mPa·s
  mass density: 971.8 ± 2 kg/m3
333.15 K, w2 = 0.898
  viscosity: 4.503 ± 0.19 mPa·s
  mass density: 981 ± 2 kg/m3
338.15 K, w2 = 0
  viscosity: 0.7818 ± 0.032 mPa·s
  mass density: 922.3 ± 2 kg/m3
338.15 K, w2 = 0.1
  viscosity: 0.967 ± 0.04 mPa·s
  mass density: 930.4 ± 2 kg/m3
338.15 K, w2 = 0.3
  viscosity: 1.456 ± 0.06 mPa·s
  mass density: 944.7 ± 2 kg/m3
338.15 K, w2 = 0.5
  viscosity: 2.161 ± 0.089 mPa·s
  mass density: 956.9 ± 2 kg/m3
338.15 K, w2 = 0.7
  viscosity: 2.884 ± 0.12 mPa·s
  mass density: 967.5 ± 2 kg/m3
338.15 K, w2 = 0.898
  viscosity: 3.91 ± 0.16 mPa·s
  mass density: 976.9 ± 2 kg/m3
343.15 K, w2 = 0
  viscosity: 0.7298 ± 0.03 mPa·s
  mass density: 917.4 ± 2 kg/m3
343.15 K, w2 = 0.1
  viscosity: 0.8945 ± 0.037 mPa·s
  mass density: 925.7 ± 2 kg/m3
343.15 K, w2 = 0.3
  viscosity: 1.324 ± 0.054 mPa·s
  mass density: 940.1 ± 2 kg/m3
343.15 K, w2 = 0.5
  viscosity: 1.936 ± 0.08 mPa·s
  mass density: 952.5 ± 2 kg/m3
343.15 K, w2 = 0.7
  viscosity: 2.546 ± 0.1 mPa·s
  mass density: 963.3 ± 2 kg/m3
343.15 K, w2 = 0.898
  viscosity: 3.42 ± 0.14 mPa·s
  mass density: 972.7 ± 2 kg/m3
348.15 K, w2 = 0
  viscosity: 0.6834 ± 0.028 mPa·s
  mass density: 912.4 ± 2 kg/m3
348.15 K, w2 = 0.1
  viscosity: 0.8302 ± 0.034 mPa·s
  mass density: 920.8 ± 2 kg/m3
348.15 K, w2 = 0.3
  viscosity: 1.207 ± 0.049 mPa·s
  mass density: 935.5 ± 2 kg/m3
348.15 K, w2 = 0.5
  viscosity: 1.741 ± 0.071 mPa·s
  mass density: 948 ± 2 kg/m3
348.15 K, w2 = 0.7
  viscosity: 2.261 ± 0.093 mPa·s
  mass density: 958.9 ± 2 kg/m3
348.15 K, w2 = 0.898
  viscosity: 3.011 ± 0.13 mPa·s
  mass density: 968.5 ± 2 kg/m3
353.15 K, w2 = 0
  viscosity: 0.6409 ± 0.026 mPa·s
  mass density: 907.4 ± 2 kg/m3
353.15 K, w2 = 0.1
  viscosity: 0.7712 ± 0.032 mPa·s
  mass density: 916 ± 2 kg/m3
353.15 K, w2 = 0.3
  viscosity: 1.105 ± 0.045 mPa·s
  mass density: 930.8 ± 2 kg/m3
353.15 K, w2 = 0.5
  viscosity: 1.568 ± 0.064 mPa·s
  mass density: 943.5 ± 2 kg/m3
353.15 K, w2 = 0.7
  viscosity: 2.019 ± 0.083 mPa·s
  mass density: 954.6 ± 2 kg/m3
353.15 K, w2 = 0.898
  viscosity: 2.67 ± 0.11 mPa·s
  mass density: 964.3 ± 2 kg/m3

Reference: the NIST ThermoML archive (doi:10.1016/j.jct.2018.12.028)
